Like-named read-outs stand apart in the source and are kept apart here. Peptide text beside a SMILES is read from it. * marks the point of attachment. pNA = O=[N+]([O-])c1ccc(N*)cc1; Cbz = O=C(OCc1ccccc1)*; Boc = CC(C)(C)OC(=O)*
Assays:
[1] = test system: peptide amidase; experiment: Enzymatic cleavage of N-terminal protected dipeptide amides; format: biochemical, orange
Source text: The results in Table 7 were obtained using an eluent: TBA/acetonitrile 60/40 (% volume)

[2] = test system: peptide amidase from orange flavedo; experiment: Cleavage of amides of amino acids (TLC); format: biochemical; design: scale not given here; conditions: 50 μg/ml; 10 mM substrate; 24 h; 0.05M KPi, pH 7.5; * = slight traces
Experimental: A DEAE-purified enzyme was employed in these experiments (volumetric activity: 40 U/ml for the substrate For-Tyr-Arg-NH2).
from orange flavedo. (50 μg/ml; 10 mM substrate)
Eluent: pyridine/butanol/AcOH/H2 O (12:15:3:5).
Reaction: 24 h, RT; 0.05M KPi, pH 7.5., 30° C.
Blank sample without enzyme.

[3] = test system: peptide amidase; experiment: Effect of chelating agents, metal cations and enzyme inhibitors on peptide amidase activity; format: biochemical, navel oranges
Experimental: The effect of the following inhibitors on peptide amidase activity was determined under standard conditions according to the methods described in Example 1. The inhibitor concentration was 10 mM in each case.

[4] = test system: peptide amidase; experiment: Enzymatic reaction of peptide amides with a chain length of greater than three amino acids; format: biochemical, orange
Experimental: Enzymatic reaction of peptide amides with a chain length of greater than
three amino acids. Reaction conditions: 10 mM substrate, 40 μg/ml
50 mM tris/HCL, pH 7.0, temp. 30° C.

[5] = test system: peptide amidase
Experimental: A reaction mixture comprising the following constituents was employed:
850 μl of the particular solvent/tris (50 mM; pH 7.5) mixture
100 μl of substrate (10 mM Z-Gly-Tyr-NH2)
50 μl of amidase (40 μg of protein)
The reaction was initiated by the addition of the enzyme to prevent inactivation of the enzyme prior to the reaction.

[6] = test system: peptide amidase; experiment: Deamidation of N-terminal protected amino acid amides; format: biochemical, orange; conditions: for Spec. Activity / Yield: 10 mM substrate, 50 μg.ml peptide amidase, pH 7.0, 30° C.; for Spec. Activity: 50 mM tris/HCl
Experimental: Separating conditions according to Example 3A were employed.
Eluent: TBA/acetonitrile 65:35 (90:10 for Bz-Arg-NH2)
Reaction conditions: 10 mM substrate; 50 μg.ml peptide amidase; 50 mM
tris/HCl; pH 7.0; Temperature 30° C.

[7] = test system: peptide amidase; experiment: Effect of the acetone concentration on kinetic parameters Km and Vmax; format: biochemical, orange
Experimental: Substrate: Z--Gly--Tyr--NH2; 40 μg/ml peptide amidase in 50 mM

[8] = enzymatic cleavage of the C-terminal amide
[9] = inhibitor 0.01 m (10 mM), standard conditions of Example 1
[10] = 10 mM substrate, 40 μg/ml peptide amidase, 50 mM tris/HCL, pH 7.0, 30° C., 360 min
[11] = peptide amidase, 6 h, 10000 µM, pH 7
[12] = 89.1% solvent, substrate Z-Gly-Tyr-NH2
[13] = peptide amidase, pH 7, 10000 µM

NC(=O)[C@H](Cc1ccccc1)NC(=O)[C@@H]1CCCN1C(=O)OCc1ccccc1 [Z--Pro--Phe--NH2] (Cbz-Pro-Phe-NH2)
Yield ([1]; peptide amidase): 100%

NCCCC[C@H](N)C(N)=O [Lys--NH2]
Reaction [2]: 0

NCC(=O)O [Glycine]
% activity remaining [3]: 99%

CC(C)C[C@H](N)C(N)=O [Leu--NH2]
Reaction [2]: 0

Bz--Tyr--Val--NH2
Yield [1, 8]: 100%

CSCC[C@H](N)C(N)=O [Met--NH2]
Reaction [2]: 0

CCN1C(=O)C=CC1=O [EMI, ethylmaleimide]
% activity remaining [3, 9]: 100%

Luteinizing Hormone Releasing Factor [LHRH]
Yield [4, 10]: 90 %/6 h

N=C(N)NCCC[C@H](NC(=O)[C@H](Cc1ccc(O)cc1)NC=O)C(N)=O [For--Tyr--Arg--NH2]
Yield ([1]; peptide amidase): 100%

CC(C)C[C@H](NC(=O)CNC(c1ccccc1)(c1ccccc1)c1ccccc1)C(=O)N[C@H](C(N)=O)C(C)C [Trt--Gly--Leu--Val--NH2]
Yield [4, 11]: 100 %/6 h
Yield ([1]; peptide amidase): 95%

Bz--Tyr--Leu--NH2
Yield [1, 8]: 100%

O[C@H](CS)[C@H](O)CS (racemic) [Dithiothreitol]
% activity remaining [3, 9]: 100%

CC(C)C[C@H](NC(=O)[C@H](Cc1ccccc1)NC(=O)CNC(=O)CNC(=O)[C@@H](N)Cc1ccc(O)cc1)C(N)=O [H--Tyr--Gly--Gly--Phe--Leu--NH2, Leu-Enkephalin]
Yield [4, 10]: 100 %/6 h

CC(C)C[C@H](NC(=O)OC(C)(C)C)C(=O)N[C@H](C(N)=O)C(C)C [Boc--Leu--Val--NH2] (Boc-Leu-Val-NH2)
Yield ([1]; peptide amidase): 20%

NC(=O)[C@@H](N)Cc1ccccc1 [Phe--NH2]
Reaction [2]: 0

N=C(N)NCCC[C@H](NC(=O)[C@@H]1CCCN1C(=O)OCc1ccccc1)C(=O)NCC(N)=O [Z--Pro--Arg--Gly--NH2] (Cbz-Pro-Arg-Gly-NH2)
Yield [4, 11]: 100 %/6 h

Bz--Tyr--Ser--NH2
Yield [1, 8]: 41%

CC(C)=O [Acetone]
Activity ([5]; 5.0% solvent): 2.011 U/mg
Activity ([5]; 18.0% solvent): 1.863 U/mg
Activity ([5]; 27.0% solvent): 1.748 U/mg
Activity ([5]; 36.0% solvent): 1.527 U/mg
Activity ([5]; 45.0% solvent): 1.38 U/mg
Activity ([5]; 72.0% solvent): 0.585 U/mg
Activity [5, 12]: 0.224 U/mg

NC(=O)CI [Iodoacetamide]
% activity remaining [3, 9]: 99%

CC(C)C[C@@H](N)C(N)=O [D-Leu--NH2]
Reaction [2]: 0

NC(=O)[C@@H](N)Cc1ccc(O)cc1 [Tyr--NH2]
Reaction [2]: 0

NC(=O)[C@H](Cc1ccc(O)cc1)NC(=O)c1ccccc1 [Bz--Tyr--NH2]
Spec. Activity [6]: 6.34 U/mg
Yield ([6]; 28 min): 88.7 %/28 min
Yield ([6]; 120 min): 100 %/2 h
yield after 15 minutes [6, 13]: 47.6%
Yield [1, 8]: 100%

CC(C)[C@H](NC(=O)OCc1ccccc1)C(=O)NCC(=O)N[C@@H](C)C(=O)N1CCC[C@H]1C(N)=O [Z--Val--Gly--Ala--Pro--NH2] (Cbz-VGAP-NH2)
Yield [4, 11]: 0 %/6 h

CC(=O)N[C@@H](Cc1c[nH]c2ccccc12)C(N)=O [Ac--Trp--NH2]
Spec. Activity [6]: 2.32 U/mg
Yield ([6]; 28 min): 32.4 %/28 min
Yield ([6]; 120 min): 100 %/2 h
Yield after 45 min [6, 13]: 48.9%

[N-]=[N+]=[N-].[Na+] [NaN3]
% activity remaining [3, 9]: 100%

Mal--Tyr--Arg--NH2
Yield [1, 8]: 100%

[Cl][Hg][Cl] [HgCl2]
% activity remaining [3, 9]: 95%

Boc--cys(bzl)--Pro--Arg--Gly--NH2
Yield [4, 10]: 90 %/6 h

C[C@@H](N)C(N)=O [D-Ala--NH2]
Reaction [2]: 0

NC(=O)[C@H](Cc1ccc(O)cc1)NC(=O)CNC(=O)OCc1ccccc1 [Z--Gly--Tyr--NH2, benzyloxycarbonyl-glycyltyrosinamide] (Cbz-Gly-Tyr-NH2)
Yield ([1]; peptide amidase): 100%
Vmax ([7]; 5% acetone): 2.93 U/mg
Km ([7]; 5% acetone, 40 μg/ml peptide amidase, pH 7.5): 0.063 mM
Km ([7]; 20% acetone): 1.6 mM
Vmax ([7]; 20% acetone): 2.54 U/mg
Km ([7]; 40% acetone): 5.5 mM
Vmax ([7]; 40% acetone): 2.57 U/mg
Km ([7]; 60% acetone): 19.6 mM
Vmax ([7]; 60% acetone): 2.58 U/mg

NC(=O)[C@@H](N)CO [Ser--NH2]
Reaction [2]: 0

N[C@@H]1CON=C1O [Cycloserine]
% activity remaining [3, 9]: 100%

O=C(O)CN(CCN(CC(=O)O)CC(=O)O)CC(=O)O [EDTA, ethylenedinitrilotetraacetic acid]
% activity remaining [3]: 92%

Bz--Tyr--Ile--NH2
Yield [1, 8]: 100%

NC(=O)[C@H](Cc1ccccc1)NC(=O)CNC(=O)OCc1ccccc1 [Z--Gly--Phe--NH2] (Cbz-Gly-Phe-NH2)
Yield ([1]; peptide amidase): 100%

NC(=O)[C@@H](N)Cc1c[nH]c2ccccc12 [Trp--NH2]
Reaction [2]: 0

N=C(N)NCCC[C@H](NC(=O)OCc1ccccc1)C(=O)N[C@@H](CCCNC(=N)N)C(=O)Nc1ccc([N+](=O)[O-])cc1 [Z--Arg--Arg--pNa, reference compound] (Cbz-Arg-Arg-pNA)
reaction (in words) ([1]; comparison, 12 h): No reaction in 12 h

CC[C@H](C)[C@H](N)C(N)=O [Ile--NH2]
Reaction [2]: 0

Bz--Tyr--Thr--NH2
Yield [1, 8]: 63%

NC(=O)[C@H](N)Cc1ccccc1 [D-Phe--NH2]
Reaction [2]: 0

CC(C)[C@H](N)C(N)=O [Val--NH2]
Reaction [2]: 0

NNC(N)=O [Semicarbazide]
% activity remaining [3, 9]: 102%

O=S(=O)(F)Cc1ccccc1 [PMSF, phenylmethanesulfonyl fluoride]
inhibition of peptide amidase (in words) [3]: significantly inhibited
% activity remaining [3, 9]: 55%
inhibition of peptide amidase (in words) ([3]; listed as phenylmethanesulfonyl fluoride): weak inhibition

N=C(N)NCCC[C@H](N)C(N)=O [Arg--NH2]
Reaction [2]: 0

C[C@@H]1C[C@@H]([C@H](O)CC2CC(=O)NC(=O)C2)C(=O)[C@@H](C)C1 [Cycloheximide]
% activity remaining [3, 9]: 98%

C[C@@H](O)[C@H](N)C(N)=O [Thr--NH2]
Reaction [2]: 0

N=C(N)NCCC[C@H](NC(=O)c1ccccc1)C(N)=O [Bz--Arg--NH2]
Spec. Activity [6]: 4.39 U/mg
Yield ([6]; 28 min): 61.6 %/28 min
Yield ([6]; 120 min): 100 %/2 h
Yield after 45 min [6, 13]: 73.5%
variation of Km and Vmax with solvent concentration (in words) [7]: did not vary significantly

Bz--Tyr--Trp--NH2
Yield [1, 8]: 39%

NC(=O)[C@@H](N)Cc1cnc[nH]1 [His--NH2]
Reaction [2]: 0

O=C(O)c1cc[c]([Hg][OH])cc1 [p-OHMBA, parahydroxymercuribenzoate]
% activity remaining [3, 9]: 96%

CCCO [Propanol]
Activity ([5]; 5.0% solvent): 0.927 U/mg
Activity ([5]; 18.0% solvent): 0.772 U/mg
Activity ([5]; 27.0% solvent): 0.474 U/mg
Activity ([5]; 36.0% solvent): 0.342 U/mg
Activity ([5]; 45.0% solvent): 0.12 U/mg
Activity ([5]; 54.0% solvent): 0.1 U/mg
Activity ([5]; 63.0% solvent): 0.1 U/mg
Activity ([5]; 72.0% solvent): 0.1 U/mg
Activity [5, 12]: 0.05 U/mg

Bz--Tyr--Ala--NH2
Yield [1, 8]: 65%

NC(=O)[C@H](Cc1c[nH]c2ccccc12)NC(=O)OCc1ccccc1 [Z--Trp--NH2]
Spec. Activity [6]: 0.37 U/mg
Yield ([6]; 28 min): 5.16 %/28 min
Yield ([6]; 120 min): 23.5 %/2 h
Yield after 45 min [6, 13]: 14.9%

C[C@H](N)C(N)=O [Ala--NH2]
Reaction [2]: 0

CCO [Ethanol]
Activity ([5]; 5.0% solvent): 1.269 U/mg
Activity ([5]; 18.0% solvent): 0.938 U/mg
Activity ([5]; 27.0% solvent): 0.814 U/mg
Activity ([5]; 36.0% solvent): 0.613 U/mg
Activity ([5]; 45.0% solvent): 0.448 U/mg
Activity ([5]; 54.0% solvent): 0.284 U/mg
Activity ([5]; 63.0% solvent): 0.204 U/mg
Activity ([5]; 72.0% solvent): 0.149 U/mg
Activity [5, 12]: 0.083 U/mg

Bz--Tyr--Lys--NH2
Yield [1, 8]: 100%

N=C(N)NCCC[C@H](NC(=O)[C@@H]1CCCN1)C(=O)NCC(N)=O [H--Pro--Arg--Gly--NH2] (H-Pro-Arg-Gly-NH2)
Yield [4, 11]: 100 %/6 h

— patent US5369016A, “Peptide amidase and the use thereof” (Forschungszentrum Juelich GmbH, priority 1990, dated 1994)
